Measurements as given in US20040214158A1, “Treatment of human papillomavirus (hpv)-infected cells” (priority 2000, published 2004).

How the values were obtained:
[1] = test system: CaSki cells; experiment: MTS cell proliferation assay, GCV/ACV on transfected CaSki cells; settings: for effect on cell viability: CaSki cells mock-transfected or transfected with control plasmid pNSGL0; for growth inhibition: CaSki cells transfected with HPV 16 LCR-driven HSV 1-TK plasmid, 20-30 μg/ml for 6-8 days
Protocol: All transfections were performed by calcium phosphate mediated transfection using the Profection Mammalian Transfection Systems (Promega, Wis.) according to the manufacturer's instructions. Cells were seeded at a density of 2×10^5 cells in each well in two mls of DMEM and grown to 50-60% confluence. One μg of plasmid DNA was used for transfecting each cell line. The calcium phosphate-DNA mix was overlaid on the cells for four to six hours and then replaced by two mls of complete medium. For mock-transfections, no DNA was added to the calcium phosphate transfection reagent. To measure promoter activity with a standard luciferase assay (Promega, Wis.) the transfected cells were harvested after 24-48 hours. To analyze HSV 1-TK gene expression by RT-PCR, the transfected cells were harvested 48-60 hours after transfection.
The CaSki, SiHa, HSC3 and HeLa cell lines were transfected with the pNSGLTK-8 or pNSGL0 plasmids or mock transfected with no plasmid. […] The absorbance at 490 nm is a measure of the number of living cells in the culture. Percent survival was calculated as follows: [formula]

[2] = test system: SiHa cells; experiment: MTS cell proliferation assay, GCV on transfected SiHa cells; assay type: cell-based, human; settings: SiHa cells transfected with pNSGLTK-8, 20.0 μg/ml
Protocol: (§1) Percent survival was calculated as follows: [formula]

[3] = test system: HeLa cells; experiment: GCV killing of transfected HeLa cells; assay type: cell-based, human; settings: HeLa cells transfected with pNSGLTK-8; 20.0 μg/ml, two weeks (data not shown)
Protocol: as §1

[4] = test system: HSC3 cells; experiment: GCV cytotoxicity on transfected HSC3 cells; assay type: cell-based, human; settings: HSC3 cells transfected with pNSGLTK-8; different concentrations, 6 days
Protocol: as §1

[5] = test system: VERO—African Green Monkey kidney cell line; experiment: GCV cytotoxicity on transfected VERO cells; assay type: cell-based; settings: VERO cells transfected with pNSGLTK-8; different concentrations, 6 days
Excerpt: (§2) To test the specificity of the methods described herein, an HPV positive cell line (CaSKi) and four HPV-negative cell lines were transfected with the plasmid plasmid pNSGLTK-8 described herein.

[6] = test system: Human oral squamous cell carcinoma cell, SSC9; experiment: GCV cytotoxicity on transfected SSC9 cells; assay type: cell-based; settings: SSC9 cells transfected with pNSGLTK-8; different concentrations, 6 days
Excerpt: as §2

[7] = test system: CaSki cells; experiment: TUNEL apoptosis detection in transfected CaSki cells; assay type: cell-based, human
Excerpt: (§3) The DeadEnd Colorimetric Apoptosis Detection System (Promega, Wis.) is a modified TUNEL (TdT-mediated dUTP Nick-End Labeling) assay in which the enzyme Terminal deoxynucleotidyl Transferase (TdT) incorporates biotinylated nucleotides at the 3′-OH DNA ends (1, 20). Streptavidin horseradish-peroxidase is then bound to the biotinylated nucleotides, which are detected by hydrogen peroxide and diaminobenzidine (DAB), a stable chromogen. Using this procedure, apoptotic nuclei stained dark brown when visualized under a light microscope.

[8] = test system: SiHa cells; experiment: TUNEL apoptosis detection in transfected SiHa cells; assay type: cell-based, human; settings: SiHa cells transfected with pNSGLTK-8; 20.0 μg/ml GCV, eight to ten days
Excerpt: as §3

[9] = test system: untransfected cell lines; experiment: TUNEL staining of untransfected cell lines; assay type: cell-based; settings: 20.0 μg/ml, six to eight days (data not shown)
Excerpt: as §3

[10] = test system: CaSki cells; experiment: Confocal microscopy of HSV1-TK protein and PI nuclear staining in transfected CaSki cells; assay type: cell-based, human; settings: CaSki cells transfected with pNSGLTK-8; 20 ug/ml GCV for 2 days
Protocol: CaSki cells were transfected with HPV16 LCR driven HSV1-TK construct (pNSGLTK-8). After 48 hours, cell were fixed and HSV-TK protein was detected using polyclonal rabbit anti-HSV1-TK antibody and FITC-conjugated goat anti-rabbit secondary antibody. The nuclear staining was done with propidium iodide. The cells were examined by confocal microscopy.
Cell were fixed and HSV1-TK protein was detected using polyclonal rabbit anti-HSV1-TK antibody and FITC-conjugated goat anti-rabbit secondary antibody. The nuclear staining was done with propidium iodide. The cells were examined by confocal microscopy.

[11] = taken orally by patients, clinical trials (Sugawara et al. 2000); cited from earlier work

SMILES	cytotoxicity ([1]; CaSKi cells transfected with pNSGLTK-8, 6 days exposure)	effect on cell viability [1]	growth inhibition [1]	effect on cell viability, dose dependence ([1]; CaSki cells transfected with pNSGLTK-8, 0, 5, 10, 20 μg/ml GCV, six days)	cells killed ([1]; CaSki cells transfected with pNSGLTK-8, 20.0 μg/ml, 10 days)	maximal cell death ([1]; CaSki cells transfected with pNSGLTK-8, 20.0 μg/ml, six days)	cells killed ([2]; six days)	cells killed ([2]; two weeks (data not shown))	cells killed [3]	cytotoxic effect [4]	cytotoxic effect [5]	cytotoxic effect [6]	apoptosis (TUNEL staining, morphology) ([7]; CaSki cells transfected with pNSGLTK-8, 20.0 μg/ml GCV, four days)	apoptosis (TUNEL staining, morphology) [8]	apoptotic cells (TUNEL staining) [9]	nuclear staining by PI [10]	concentration showing cytotoxic effects ([1]; CaSki cells transfected with pNSGLTK-8, ten days exposure)	apoptosis (TUNEL staining, morphology) ([7]; cells transfected with pNSGLTK-8, 20.0 μg/ml ACV, six days (FIG. 12: CaSki))	bioavailability [11]
Nc1nc(O)c2ncn(COC(CO)CO)c2n1 [GCV, ganciclovir]	cytotoxicity is restricted to HPV positive cell line CaSKi only	No significant effect on cell viability	approximately 80%	dose-dependent effect	more than 95%	approximately 80%	approximately 42%	more than 90%	more than 90%	did not show any significant cytotoxic effect	did not show any significant cytotoxic effect	did not show any significant cytotoxic effect	characteristic apoptotic morphology	significant cell death associated with typical apoptotic morphology	did not show an increase in apoptotic cells	majority of nuclei look disrupted due to early apoptosis			
Nc1nc2c(ncn2COCCO)c(=O)[nH]1 [ACV, acyclovir]		refractory	approximately 80%												did not show an increase in apoptotic cells		30000 ng/mL	Typical apoptotic morphology of TUNEL-stained nuclei	
CC(C)[C@H](N)C(=O)OCC(CO)OCn1cnc2c(=O)nc(N)[nH]c21 (stereo partly shown) [valganciclovir]																			enhance the bioavailability of ganciclovir
